Here are results for 26 compounds from patent US20170121344A1 (Siga Technologies, Inc., priority 2009, published 2017).

Each structure is given as a SMILES string.

The first assay relates to Dengue-2 (Strain New Guinea C). As to the kind of experiment: Viral yield assay against Dengue-2 in Vero cells. It is filed as cell-based, Dengue virus. Particulars: Dengue virus, DENV2; Vero cells; read-out: Activity (EC50 in μM) DENV-2. The method, boiled down:
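Vero cells were infected with dengue virus at an MOI of 0.1, treated with compound or DMSO vehicle, and kept at 37° C. Supernatant virus was harvested 48 hours post infection and titered on Vero cells, with EC50 derived from yield reduction.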
Regarding `CN(C)CC(=O)Nc1c(C(=O)Nc2cccc(C(F)(F)F)c2)sc2nc(-c3cccs3)ccc12` [Compound 308, 3-[[2-(dimethylamino)acetyl]amino]-6-(2-thienyl)-N-[3-(trifluoromethyl)phenyl]thieno[2,3-b]pyridine-2-carboxamide], the EC50 (commonly the concentration at which the effect is half-maximal) is under 5 µM.

Turning to `NCCCNc1c(C(=O)Nc2nnc(-c3ccccc3)s2)sc2nc3c(cc12)CCCCC3` [Compound 313, 3-((3-aminopropyl)amino)-N-(5-phenyl-1,3,4-thiadiazol-2-yl)-6,7,8,9-tetrahydro-5H-cyclohepta[b]thieno[3,2-e]pyridine-2-carboxamide], the EC50 was under 5 µM.

`CN(C)CCNc1c(C(=O)Nc2nnc(-c3ccccc3)s2)sc2nc3c(cc12)CCCCC3` [Compound 315, 3-((2-(dimethylamino)ethyl)amino)-N-(5-phenyl-1,3,4-thiadiazol-2-yl)-6,7,8,9-tetrahydro-5H-cyclohepta[b]thieno [3,2-e]pyridine-2-carboxamide]: the concentration giving a half-maximal response (EC50) was under 5 µM.

Staying with this assay, now noted: Dengue virus, DENV2; viral yield assay, Vero cells, MOI 0.1, 48 hours post infection; read-out: Activity (EC50 in μM) DENV-2.
Turning to `Nc1c(C(=O)NC2CCCCC2)sc2nc3c(cc12)CCCCC3` [Compound 281, 3-amino-N-cyclohexyl-6,7,8,9-tetrahydro-5H-cyclohepta[b]thieno [3,2-e]pyridine-2-carboxamide], the concentration giving a half-maximal response (EC50) was in the range of 5 to 25 µM. The same measure, in the same setting: under `CCCCNC(=O)c1sc2nc3c(cc2c1N)CCCCC3` [Compound 282, 3-amino-N-butyl-6,7,8,9-tetrahydro-5H-cyclohepta [b]thieno[3,2-e]pyridine-2-carboxamide] stands 5 to 25 µM; under `CC(C)(C)NC(=O)c1sc2nc3c(cc2c1N)CCCCC3` [Compound 283, 3-amino-N-(tert-butyl)-6,7,8,9-tetrahydro-5H-cyclohepta[b]thieno [3,2-c]pyridine-2-carboxamide], under 5 µM; under `Cc1cnc2sc(C(=O)Nc3nnc(-c4ccccc4)s3)c(N)c2c1` [Compound 286, 3-amino-5-methyl-N-(5-phenyl-1,3,4-thiadiazol-2-yl)thieno[2,3-b]pyridine-2-carboxamide], under 5 µM. Same read-out and setting: to `COc1ccnc2sc(C(=O)Nc3nnc(-c4ccccc4)s3)c(N)c12` [Compound 287, 3-amino-4-methoxy-N-(5-phenyl-1,3,4-thiadiazol-2-yl)thieno[2,3-b]pyridine-2-carboxamide] belongs 5 to 25 µM. The same measure, in the same setting: under `Nc1cnc2sc(C(=O)Nc3nnc(-c4ccccc4)s3)c(N)c2c1` [Compound 290, 3,5-diamino-N-(5-phenyl-1,3,4-thiadiazol-2-yl)thieno[2,3-b]pyridine-2-carboxamide] stands under 5 µM.

Take `Nc1c(C(=O)Nc2nnc(-c3ccccc3)s2)sc2ncc(C(=O)O)cc12` [Compound 291, 3-amino-2-[(5-phenyl-1,3,4-thiadiazol-2-yl)carbamoyl]thieno[2,3-b]pyridine-5-carboxylic acid]: the EC50 lay in the range of 5 to 25 µM. Same read-out and setting: under `O=c1[nH]c2c(sc3nc(-c4cccs4)ccc32)c(=O)n1-c1cccc(C(F)(F)F)c1` [Compound 316, 7-(thiophen-2-yl)-3-(3-(trifluoromethyl)phenyl)pyrido[3′,2′:4,5]thieno[3,2-d]pyrimidine-2,4(1H,3H)-dione] stands under 5 µM. The same measure, in the same setting: under `Nc1c(C(=O)Nc2cccc(C(F)(F)F)c2)sc2nc(C(F)(F)F)ccc12` [Compound 317, 3-amino-6-(trifluoromethyl)-N-[3-(trifluoromethyl)phenyl]thieno[2,3-b]pyridine-2-carboxamide] stands under 5 µM; under `Cc1nc(C)c(-c2ccc3c(N)c(C(=O)Nc4cccc(C(F)(F)F)c4)sc3n2)s1` [Compound 318, 3-amino-6-(2,4-dimethylthiazol-5-yl)-N-[3-(trifluoromethyl)phenyl]thieno[2,3-b]pyridine-2-carboxamide], under 5 µM; under `N=C(Nc1cccc(C(F)(F)F)c1)c1sc2nc(-c3cccs3)ccc2c1N` [Compound 319, 3-amino-6-(2-thienyl)-N-[3-(trifluoromethyl)phenyl]thieno[2,3-b]pyridine-2-carboxamidine], under 5 µM. The same measure, in the same setting: under `O=C1CN(c2cccc(C(F)(F)F)c2)C(=O)c2sc3nc(-c4cccs4)ccc3c2N1` [Compound 320] stands under 5 µM; under `CN(C)CCN(C(=O)c1sc2nc(-c3cccs3)ccc2c1N)c1cccc(C(F)(F)F)c1` [Compound 323, 3-amino-N-(2-dimethylaminoethyl)-6-(2-thienyl)-N-[3-(trifluoromethyl)phenyl]thieno[2,3-b]pyridine-2-carboxamide], under 5 µM; under `CC(=O)Nc1nc2sc(C(=O)Nc3ccc(Br)cc3)c(N)c2c(-c2ccco2)c1C#N` [Compound 324, 6-acetamido-3-amino-N-(4-bromophenyl)-5-cyano-4-(2-furyl)thieno[2,3-b]pyridine-2-carboxamide], under 5 µM.

Staying with this assay, now noted: Dengue virus, Vero, 48 h, read-out: Activity (EC50 class) against Dengue-2 Virus in Vero cells.
Consider `CC(C)NC(=O)c1sc2nc3c(c(-c4cccs4)c2c1N)CN(C)CC3` [Compound 273, 3-Amino-6-methyl-4-thiophen-2-yl-5,6,7,8-tetrahydro-thieno[2,3-b][1,6]naphthyridine-2-carboxylic acid isopropylamide], for which the 50% effective concentration (EC50) is over 25 µM.

The assay is the same for the next values; noted with them: Dengue virus; Vero cells, MOI 0.1, harvested 48 hours post infection; read-out: Activity (EC50 class) against Dengue-2 Virus in Vero cells.
`COc1cc2c(cc1OC)CN(C(=O)c1sc3nc4c(cc3c1N)CN(C)CC4)CC2` [Compound 274, (3-Amino-6-methyl-5,6,7,8-tetrahydro-thieno[2,3-b][1,6]naphthyridin-2-yl)-(6,7-dimethoxy-3,4-dihydro-1H-isoquinolin-2-yl)-methanone]: the concentration giving a half-maximal response (EC50) was over 25 µM.

Turning to `CCOC(=O)N1CCC(NC(=O)c2sc3nc4c(cc3c2N)CN(CC)CC4)CC1` [Compound 275], the EC50 is over 25 µM.

As for `CCN(CC)c1ccc(NC(=O)c2sc3nc4c(cc3c2N)CN(C)CC4)cc1` [Compound 276, 3-Amino-6-methyl-5,6,7,8-tetrahydro-thieno[2,3-b][1,6]naphthyridine-2-carboxylic acid (4-diethylamino-phenyl)-amide], the EC50 was over 25 µM. As for `CN1CCc2nc3sc(C(=O)Nc4c(F)cccc4F)c(N)c3cc2C1` [Compound 277, 3-Amino-6-methyl-5,6,7,8-tetrahydro-thieno[2,3-b][1,6]naphthyridine-2-carboxylic acid (2,6-difluoro-phenyl)-amide], the EC50 is over 25 µM. Turning to `CN1CCc2nc3sc(C(=O)Nc4nncs4)c(N)c3cc2C1` [Compound 278, 3-Amino-6-methyl-5,6,7,8-tetrahydro-thieno[2,3-b][1,6]naphthyridine-2-carboxylic acid [1,3,4]thiadiazol-2-ylamide], the EC50 is over 25 µM.

Take `COc1ccc(CNC(=O)c2sc3nc4c(cc3c2N)CN(C)CC4)cc1OC` [Compound 279, 3-Amino-6-methyl-5,6,7,8-tetrahydro-thieno[2,3-b][1,6]naphthyridine-2-carboxylic acid 3,4-dimethoxy-benzylamide]: the EC50 is over 25 µM. For `CN1CCc2nc3sc(C(=O)Nc4cccc(C(F)(F)F)c4)c(N)c3cc2C1` [Compound 280, 3-Amino-6-methyl-5,6,7,8-tetrahydro-thieno[2,3-b][1,6]naphthyridine-2-carboxylic acid (3-trifluoromethyl-phenyl)-amide], the EC50 is over 25 µM.

The same assay, now with this note: Vero cells; read-out: Activity (EC50 in μM) DENV-2.
With `CC(=O)N(CCN)c1c(C(=O)Nc2nnc(-c3ccccc3)s2)sc2nc3c(cc12)CCCCC3` [Compound 314, 3-(N-(2-amino-ethyl)acetamido)-N-(5-phenyl-1,3,4-thiadiazol-2-yl)-6,7,8,9-tetrahydro-5H-cylcohepta[b]thieno[3,2-e]pyridine-2-carboxamide], the EC50 is under 5 µM.
